Laboratory results from PubChem BioAssay AID1902 (Broad Institute, 2009).
The source made the active and inactive calls.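 Rule for the calls: active = EC50 no more than a set limit of log units above the highest dose; inactive = the rest.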

Target: S. pyogenes SKKanGAS, kanamycin survival, BacTiterGlo, 6 h
Assay: SKKanGAS survival reduction under kanamycin, dose response, streptokinase promoter inhibitor project, SKKanGAS strain, luminescence, dose confirmation (AID 1902);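 note: lower survival reflects blocked streptokinase promoter driving kanamycin resistance gene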

Row | SMILES | EC50
1 | CN(Cc1ccc(OC(F)F)cc1)Cc1nc2c(Br)cc(Br)cc2c(=O)[nH]1 | 2.98 µM
2 | C=C1CCC2C(C)(C)[C@@H](O)CC[C@@]2(C)[C@@H]1COc1ccc2ccc(=O)oc2c1 (some centres undefined) | 11.6 µM
3 | CC(=O)NC(c1ccc(Cl)cc1Cl)c1ccc2cccnc2c1O (centres undefined) | 4.2 µM
4 | O=C(Nc1ccc(Cl)c(Cl)c1)Nc1ccon1 | 14.5 µM
5 | CCCn1c(NC(=O)c2ccccc2)nc2ccccc21 | 1.57 µM
6 | NC(=O)NC(=O)CSc1nc2cc([N+](=O)[O-])ccc2n1-c1cccc(C(F)(F)F)c1 | 0.256 µM
7 | COc1ccc(NC(C)C(=O)N/N=C/c2c(O)ccc3ccccc23)cc1 (centres undefined) | 1.14 µM
8 | Cc1cc(C)n(-c2nc(Nc3ccccc3C(F)(F)F)nc(-n3nc(C)cc3C)n2)n1 | 2.67 µM
9 | NC(=S)N/N=C\c1c(OCc2ccccc2Cl)ccc2ccccc12 | 2.53 µM
10 | O=C(/C=C/c1c[nH]c2ccccc12)c1c(O)n(CCc2ccccc2)c(=O)[nH]c1=O | 3.11 µM
11 | CC1(C)S[C@@H]2[C@H](NC(=O)COc3ccccc3)C(=O)N2C1C(=O)OCc1ccccc1 (some centres undefined) | 1.04 µM
12 | Cc1cc(C)n(-c2nc(SCC(=O)O)c3c4c(sc3n2)COC(C)(C)C4)n1 | 4.31 µM
13 | CCOc1ccc2nc(NC(=O)c3ccccn3)sc2c1 | 1.79 µM
14 | C/C(N)=C(/C#N)C(=O)CSc1nc2cc(Cl)ccc2c(=O)n1Cc1ccco1 | 8.74 µM
15 | COc1cc([N+](=O)[O-])cc(/C=N/NC(=O)c2cncc(Br)c2)c1O | 0.97 µM
16 | CC[C@@H]1CC=C[C@H]2[C@H]1C(=O)N(Cc1ccccc1)[C@H]2c1ccc(OC)c(Cl)c1 | 4.15 µM
17 | O=[N+]([O-])c1c(NCCCO)cc(Sc2nc3ccccc3s2)c2nonc12 | 2 µM
18 | O=C(/C=C/c1ccccc1)NC(NC(=S)Nc1cc(Cl)ccc1Cl)C(Cl)(Cl)Cl (centres undefined) | 0.55 µM
19 | CO[C@@]1(NC(=O)Cc2cccs2)C(=O)N2C(C(=O)O)=C(COC(N)=O)CS[C@@H]21 | 3.33 µM
20 | CCCn1c(NC(=O)C23CC4CC(CC(O)(C4)C2)C3)nc2ccccc21 | 3.09 µM
21 | COc1ccc(NC(=O)CN(C)C(=O)/C=C/c2cn(-c3ccccc3)nc2-c2ccc(C)cc2)cc1 | 8.68 µM
22 | CCCCCCCCOC(=O)/C=C/c1c(C)[nH]c(=O)[nH]c1=O | 0.788 µM
23 | Cc1cc(C)c2nc(NNC(=O)c3cc(=O)c4ccccc4o3)sc2c1 | 0.165 µM
24 | Cc1ccc(Cl)cc1N1CCN(C(=O)c2cccc3c(=O)c(C)c(-c4ccccc4)oc23)CC1 | 4 µM
25 | C/C(=N\Nc1nc(N2CCCCCC2)nc(N2CCCCCC2)n1)c1ccccc1 | 3.69 µM
26 | CC(C)(C)c1ccc(Cn2ccc(-c3ccc4c(c3)OCO4)n2)cc1 | 7.09 µM

Row | SMILES | EC50
27 | O=S(=O)(c1ccccc1)N1CCN=C1SCc1c(F)cccc1Cl | 8.15 µM
28 | COc1ccc(/C=C2\Sc3ccc(C(=O)N4CCCC4)cc3N(C)C2=O)cc1OC | 0.515 µM
29 | Cc1nnc(-c2cccc(Br)c2)c2cn(-c3ccc(Br)cc3)nc12 | 3.07 µM
30 | CC1(C)COCN1S(=O)(=O)c1ccc(C(=O)Nc2nnc(-c3ccc(Cl)s3)o2)cc1 | 0.459 µM
31 | COc1ccccc1OCCCn1c(C)c(C#N)c2ccccc21 | 7.08 µM
32 | CCn1c(=O)c(C(=O)NNC(=O)c2ccccc2F)c(O)c2ccccc21 | 3.17 µM
33 | CCCc1nc(NCc2ccccc2)c(C#N)c2c1CCCC2 | 2.93 µM
34 | Cc1c(Cl)cnn1CC(=O)NC1C(=O)N2C(C(=O)O)=C(CSc3nnnn3C)CSC12 (centres undefined) | < 0.06 µM
35 | Oc1c(C(Nc2cccc(C(F)(F)F)c2)c2cccnc2)ccc2cccnc12 (centres undefined) | 1.53 µM
36 | Cc1cc(C)cc(C(=O)Nc2nc3ccccc3[nH]2)c1 | 6.04 µM
37 | COc1cccc(C(=O)OCC(=O)Nc2nnc(-c3ccccc3)o2)c1 | 8.68 µM
38 | CC(=O)[C@]1(O)Cc2c(O)c3c(c(O)c2[C@@H](O[C@H]2C[C@H](N)[C@H](O)[C@H](C)O2)C1)C(=O)c1ccccc1C3=O | 1.13 µM
39 | Fc1ccccc1N=C1NN=C(c2ccccc2)CS1 | 8.17 µM
40 | O=C(Nc1nc(-c2ccccn2)cs1)c1ncc(Cl)c(Cl)c1Cl | 0.771 µM
41 | COc1ccc2ccc3c(c2c1)N=C[C@]1(O3)N(C)c2ccccc2C1(C)C | 1.41 µM
42 | Nc1n[nH]c(C2CC2)c1N=Nc1ccc(Cl)c(Cl)c1 | 2.05 µM
43 | C=CCOC(=O)C1=C(C)NC(SCC)=C(C#N)C1c1ccc(Cl)cc1 (centres undefined) | 5.92 µM
44 | CC(C)CC(=O)Nc1ccc(C(=O)NNC(=S)NC(=O)C2CCCCC2)cc1 | 1 µM
45 | CC(=O)N(C1=C(Cl)C(=O)c2ccccc2C1=O)C1CCCCC1 | 9.36 µM
46 | Cc1ccc(C(=O)NC(=S)NNC(=O)COc2ccccc2C)cc1 | 0.161 µM
47 | O=C(NC(=S)Nc1ccc(Cl)cn1)C(c1ccccc1)c1ccccc1 | 3.43 µM
48 | O=[N+]([O-])c1cc(C(F)(F)F)ccc1NCCNC(=S)Nc1ccc(Cl)cc1 | 4.79 µM
49 | FC(F)(F)c1cc(CCN2C(=S)NC[C@@H]2CC2CCCCC2)cc(C(F)(F)F)c1 | 3.7 µM
50 | COc1ccc(C(=O)NC(=S)NNC(=O)c2ccccc2C)cc1 | 1.49 µM
51 | O=c1c2ccccc2sn1-c1cc(S(=O)(=O)N2CCOCC2)ccc1N1CCOCC1 | 13.3 µM
52 | COC(=O)c1cc(S(=O)(=O)n2nc(C)c(Br)c2C)c(Cl)cc1Cl | 1.01 µM

Row | SMILES | EC50
53 | O=C(CN(C(=O)Cn1nnc(-c2ccccc2F)n1)c1cccc2c1CCCC2)NCc1ccccc1 | 5.32 µM
54 | COc1cc2nc(=S)n3[nH]c(COc4ccccc4C)nc3c2cc1OC | 2.28 µM
55 | CCN(CC)c1nc(C(F)(F)F)nc2c1nnn2Cc1ccccc1 | 3.62 µM
56 | COc1ccc(Cl)cc1C(=O)NNC(=S)NC(=O)c1ccc(F)c(F)c1 | 0.139 µM
57 | Clc1ccc2nc(-c3ccccn3)c(Nc3ccc4c(c3)OCO4)n2c1 | 6.99 µM
58 | Cc1cc(C)c(-c2noc(C(=O)OC(C)(C)C)c2C(=O)OC(C)(C)C)c(C)c1 | 3.58 µM
59 | CCc1ccc(S(=O)(=O)/N=C2\C=C(Nc3cccc(C(=O)O)c3)C(=O)c3ccccc32)cc1 | 1.71 µM
60 | Cc1[nH]nc(Nc2ccc(C(C)C)cc2)c1[N+](=O)[O-] | 13.8 µM
61 | Cc1cccc(/C=C/C(=O)c2cc(Br)ccc(=O)c2O)c1 | 0.818 µM
62 | CC[C@H]1OC(=O)[C@H](C)[C@@H](O[C@H]2C[C@@](C)(OC)[C@@H](O)[C@H](C)O2)[C@H](C)[C@@H](O[C@@H]2O[C@H](C)C[C@H](N(C)C)[C@H]2O)[C@](C)(O)C[C@@H](C)C(=NOCOCCOC)[C@H](C)[C@@H](O)[C@]1(C)O | < 0.06 µM
63 | Cc1cc(C)cc(-n2c(C)cc(/C=C3\C(=N)N4N=C(CC(C)C)SC4=NC3=O)c2C)c1 | 2.67 µM
64 | O=C(NNC(=S)NC(=O)c1ccccc1)c1ccc(O)cc1 | 2.26 µM
65 | Cc1cc(=O)[nH]c(SCC(=O)Nc2ccc(Br)cc2)c1C#N | 9.7 µM
66 | O=C(O)CSCC(=O)N(Cc1ccccc1)c1nc(-c2ccccc2)c(-c2ccccc2)s1 | 1.58 µM
67 | CN(C)CCCn1c(SCC(=O)Nc2nc(-c3cccc(Br)c3)cs2)nc2ccccc2c1=O | 4.73 µM
68 | Cc1ccc(C(=O)C2=C(O)C(=O)N(Cc3ccco3)C2c2cccc(Br)c2)o1 (centres undefined) | 6.67 µM
69 | COc1ccc(C(=O)N2CCc3c([nH]c4ccccc34)C2C(F)(F)F)cc1 (centres undefined) | > 15 µM (inactive)
70 | O=C1C(Cl)=C(Nc2ccc3cn[nH]c3c2)C(=O)c2ccccc21 | 2.21 µM
71 | Cc1ccnn2c(-c3ccccc3)c3c(=O)n(C)c(=O)n(C)c3c12 | > 15 µM (inactive)
72 | CC(C)(C)OC(=O)[C@H](Cc1ccccc1)NC(=O)c1[nH]cnc1C(=O)Nc1cccc(Cl)c1 | 2.4 µM
73 | Cc1cccc(-n2c(N)c(-c3nc4ccccc4n3C)c3nc4ccccc4nc32)c1 | 2.26 µM
74 | Oc1c(C(c2ccccn2)N2CCCCC2)cc(Cl)c2cccnc12 (centres undefined) | 8.88 µM
75 | O=C(Nc1ccc(F)cc1)c1nc2c(nnn2Cc2cccc3ccccc23)c(=O)[nH]1 | 2.44 µM
76 | Cc1nn(-c2ccccc2)c(Cl)c1/C=N/NC(=O)c1ccc(NS(=O)(=O)c2cccs2)cc1 | 2.34 µM
77 | Oc1ccccc1N=Nc1ccccc1O | 0.961 µM
78 | Cc1cc(N/N=C/c2ccccc2O)nc(-c2ccccc2O)n1 | 1.6 µM

Row | SMILES | EC50
79 | Cc1ccc(/C=N/NC(=O)Cc2ccc(Cl)cc2)c(O)c1 | 0.866 µM
80 | CCCCCCCCCCCC1=C(O)C(=O)C=C(O)C1=O | 1.67 µM
81 | Cc1cccc(CS(=O)(=O)c2nnc([C@H](Cc3ccccc3)NC(=O)OC(C)(C)C)o2)c1 | 3.88 µM
82 | Cc1cccc(NC(=O)c2nc[nH]c2C(=O)N[C@@H](CC(C)C)C(=O)OCc2ccccc2)c1 | 1.68 µM
83 | COc1ccc(NC(=O)c2cccc(-c3ccc(O)cc3)c2)cn1 | 13 µM
84 | C/C(=N\N=C(/N)SC1CC(=O)N(c2ccc(Cl)c(Cl)c2)C1=O)c1cccs1 (centres undefined) | 2.13 µM
85 | CCCCCCCCOC(=O)C1=C(C)Nc2nnnn2C1c1cccs1 (centres undefined) | 3.45 µM
86 | CCOc1ccc(/C=N/NC(=O)Cc2csc(Nc3cccc(C(F)(F)F)c3)n2)cc1 | 6.35 µM
87 | CN1CCN(c2cc3c(cc2F)c(=O)c(C(=O)O)cn3CCF)CC1 | 4.37 µM
88 | CCC(NC(=O)Nc1nnc(C(F)(F)F)s1)(C(F)(F)F)C(F)(F)F | 1.42 µM
89 | CCCC(=O)Nc1ccc2c(c1)nc(CCNC(=O)c1ccccc1)n2C | > 15 µM (inactive)
90 | N=C1SCC(=O)N1c1ncc(Cc2cccc(Cl)c2)s1 | 0.145 µM
91 | COCc1cc(Sc2c(Cl)cccc2Cl)nc(-c2ccccc2)n1 | 10.5 µM
92 | CCc1ccc(CNc2ccc3c(c2)ncn3C(C)(C)C)cc1 | 3.3 µM
93 | Cc1nn(-c2ccccc2)c2sc(C(=O)N3CCc4ccccc4C3)cc12 | 4.16 µM
94 | COc1ccc(CN(C)S(=O)(=O)c2nnc(NC(=O)c3ccccc3Br)s2)cc1 | 3.51 µM
95 | CC/C(=N\NC(=S)Nc1cccc(C)c1)c1ccccc1 | 7.96 µM
96 | Cc1ccc(C[n+]2c(-c3ccc(C)cc3)cc(-c3ccc(C)cc3)cc2-c2ccc(C)cc2)cc1 | 4.06 µM
97 | CC(C)N1CCc2c(sc(NC(=O)CCS(=O)(=O)c3ccccc3)c2C#N)C1 | > 15 µM (inactive)
98 | CN(C)c1ccc(/C=C/c2ccc3ccccc3[n+]2C)cc1 | 7.2 µM
99 | C/C(=N\NC(=S)NCC(C)(C)C)c1cc(F)cc(F)c1O | 2.65 µM
100 | CCCCCn1c(N)c(-c2nc3ccccc3s2)c2c([N+](=O)[O-])nn(CC)c(=O)c21 | 8.16 µM
101 | COc1ccc(/C=N/n2c(C)nc3c([nH]c4ccccc43)c2=O)cc1CN1CCCC(C)(C)C1 | 7.93 µM
102 | O=C(Nc1cccc(Cl)c1N1CCCC1)c1ccc(Br)o1 | 5.82 µM
103 | COc1ccc(/C=C2/Sc3ccc(C(=O)N4CCc5ccccc5C4)cc3NC2=O)cc1 | 1.65 µM
104 | Cc1cc(C)n(-c2nc(NC(C)(C)C)nc(NC(C)(C)C)n2)n1 | 0.396 µM
